The values that follow come from patent US4797488A, “Psychotropic polycyclic imides” (American Home Products Corporation, priority 1987, dated 1989).

For assay [1], the system named is apomorphine-induced stereotyped behavior and climbing. As to the kind of experiment: Antagonism of apomorphine-induced stereotyped behavior and climbing. The assay is classed as in vivo, CF-1 mice (Charles River). Particulars: Mus musculus, head: p.o. (text: i.p.), apomorphine 1 mg/kg s.c., mice.
Assay [2] has as its target T1, 5-HT1A serotonin receptor (Rattus norvegicus, UniProt P19327).
T1 construct: 44: 1685-1696, 1985; from tissue
T1 sequence (P19327 1-422): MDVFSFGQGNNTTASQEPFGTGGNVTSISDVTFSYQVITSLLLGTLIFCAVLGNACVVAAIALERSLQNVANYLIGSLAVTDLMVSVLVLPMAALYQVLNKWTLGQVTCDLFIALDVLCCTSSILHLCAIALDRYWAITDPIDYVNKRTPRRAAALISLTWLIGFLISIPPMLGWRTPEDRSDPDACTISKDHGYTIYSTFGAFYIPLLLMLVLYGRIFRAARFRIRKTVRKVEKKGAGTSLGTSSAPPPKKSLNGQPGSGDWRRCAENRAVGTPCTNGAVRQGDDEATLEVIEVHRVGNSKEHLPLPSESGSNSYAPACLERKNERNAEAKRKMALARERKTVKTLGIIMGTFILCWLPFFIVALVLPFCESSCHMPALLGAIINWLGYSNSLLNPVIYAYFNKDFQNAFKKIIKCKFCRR
As to the kind of experiment: Inhibition of [3H] 8-OH DPAT binding. The conditions noted are these: 5-HT1A.
Text: 8-OH DPAT (dipropylaminotetralin) from the 5-HT1A serotonin receptor by the procedure of Hall et al., J. Neurochem.

The target in the next assay is T2, D-2 dopamine receptor (Rattus norvegicus, UniProt P61169).
T2 construct: from tissue; host or cells: limbic brain tissue
As to the kind of experiment: [3H]Spiroperidol binding inhibition, homogenized limbic brain tissue. The source says: The results of this testing with compounds representative of the invention whose production is exemplified,infra, are as follows: […]

Assay [3] relates to conditioned avoidance responding. As to the kind of experiment: Conditioned avoidance, discrete trial (lever press), oral. The class given is in vivo, rat. The source says:
(§1) The antipsychotic properties of the compounds of this invention were established by standard pharmacologically accepted procedures involving conditioned avoidance studies in which trained male CD rats (Charles River), 400-450 g. body weight are exposed to a fifteen second warning tone (conditioned stimulus) continued for an additional fifteen seconds accompanied by electric shock. The rat can avoid the electric shock by jumping to an exposed shelf (shelf-jump response). A response during the initial warning tone is considered an avoidance response, while a response during shock delivery is considered as escape response. The shelf-jump response test procedure follows that of Herman et al., Comm. in Psychopharm., 3, pp. 165-171 (1979). The compounds of this invention were tested at a single dose (40 mg./kg. i.p.) in this procedure and were rated relative to their inhibition of conditioned avoidance responding. A similar test procedure in which a lever press was substituted for a shelf-jump was used to establish the oral (p.o) activity of the test compounds. Orally active compounds were tested over a full dose range and the Avoidance Block activities reported as "AB50 's" (mg./kg.).

The test system is the same in assay [4]. As to the kind of experiment: Conditioned avoidance, shelf-jump response test. Particulars: ip, single dose, rat. The class given is in vivo, male CD rats (Charles River).
Text: as §1

[5] abbreviates: read-out: Apomorphine antagonism ED50, climbing.
Where [6] appears, read: read-out: Apomorphine antagonism ED50, stereotypy.

One may read the Ki as the equilibrium dissociation constant of an inhibitor or competing ligand from its target. One may read the inhibition as the percentage by which the read-out fell short of the control. In general, inhibition in vivo refers to how much of the control response was suppressed.

Read-outs that look alike come from different tables or passages of the source.

T2 sequence (P61169 whole entry): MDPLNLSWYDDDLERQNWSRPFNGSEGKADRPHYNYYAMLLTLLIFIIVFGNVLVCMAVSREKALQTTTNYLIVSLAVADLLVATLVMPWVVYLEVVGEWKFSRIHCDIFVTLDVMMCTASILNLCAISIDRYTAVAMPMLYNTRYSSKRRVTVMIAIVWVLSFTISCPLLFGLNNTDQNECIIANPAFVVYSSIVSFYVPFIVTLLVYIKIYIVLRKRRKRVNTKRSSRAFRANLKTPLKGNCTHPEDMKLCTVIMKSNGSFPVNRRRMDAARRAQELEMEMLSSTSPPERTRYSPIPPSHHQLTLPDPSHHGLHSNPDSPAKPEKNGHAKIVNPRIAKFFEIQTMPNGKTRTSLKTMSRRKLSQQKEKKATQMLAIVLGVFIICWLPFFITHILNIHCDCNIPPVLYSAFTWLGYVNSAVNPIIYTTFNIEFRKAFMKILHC

As for `O=C1C2CC(C(=O)N1CCCCN1CCN(c3cnccn3)CC1)C1C2C2C3CC4C2C4C31` (stereo not drawn) [Example 13, Decahydro-3-[4-[4-(2-pyrazinyl)-1-piperazinyl]butyl]-1,5-methano-6,7,9-metheno-2H-pentaleno[1,2-d]azepine-2,4(3H)-dione], the ED50 in assay [1] (setting [5]) turned out to be 5.44 mg/kg; in assay [1] (setting [6]) it was 32.3 mg/kg; in assay [3] (Rattus norvegicus, po, read-out: Conditioned avoidance, discrete trial AB50 (Avoidance Block)) it was 40.2 mg/kg. Further, the affinity in assay [2] corresponds to a Ki of 4 nM. At D-2 dopamine receptor (1 μM), this compound had an inhibition at 1 µM of 51%. In assay [4], this compound returned an inhibition in vivo at 40 mg/kg of around 80%.

As for `O=C1C2CC(C(=O)N1CCCCN1CCN(c3ncccn3)CC1)C1C3CCC(C3)C21` (stereo not drawn) [Example 15, Octahydro-3-[4-[4-(2-pyrimidinyl)-1-piperazinyl]butyl]-2H-1,5:6,9-dimethano-2H-3-benzazepine-2,4(3H)-dione], the ED50 was found to be 14.3 mg/kg in assay [1] (setting [5]) and 2.54 mg/kg in assay [1] (setting [6]). The values for the Ki (in assay [2]; at D-2 dopamine receptor) were 0.5 nM and 174 nM, respectively. Moreover, the “Conditioned avoidance, discrete trial AB50 (Avoidance Block)” value in assay [3] (p.o.) was “inactive”. For the same compound, the inhibition in vivo at 40 mg/kg in assay [4] is above 20%.
